US20250312469A1 (CANGET BIOTEKPHARMA, priority 2024, published 2025)
Several values for one entry are separate records, joined by “and”; a condition that tells them apart may be missing. Equal values may be shown once.

Tests used:
[1] = system: Panc-1, BxPC-3 and MiaPaca-2 cells; assay: Cell monolayer wound healing test; format: cell-based, human
Procedure: Representative cell migration wound healing images were taken at zero hour and wound healing for 48-72 hours.

TA100 = assay: Ames Bacterial Reverse Mutation Assay
[2] = system: pancreatic cancer PDX14244 or PDX17624 tumors; assay: Western blots of pancreatic cancer PDX tumors after oral treatment; format: in vivo, SCID mice; details: 5 mg/kg oral; day 1-3
Procedure: The collected tumor tissues were then homogenized with untrasound and analyzed using the corresponding antibodies for DDX5, Agrin, YAP1, p-FAK, FAK, Integrin and Actin via Western blots. Actin expression is the internal control of total protein loading.
For frozen prostate cancer tissue specimens and their adjacent non-tumor tissues (if any) obtained from Roswell Park pathology network, 30-50 mg of each tissue in a 1.5 Eppendorf tube containing 500 μL of 2×SDS lysis buffer containing Tris pH 6.8+4% SDS+10% Glycerol were homogenized through ultrasound treatment for 10-15 second per time with 3-6 times until tumor tissue was lysed. After all tissues were processed, 1.5 mL tubes were centrifuged at 13,000 rom in a microcentrifuge for 1-2 min and then the supernatant in each tube was transferred into a new 1.5 mL tube for protein concentration measurement (refer to the section of “Studies with Human patient tumor specimens” for more information). […] Proteins of interest were detected using Western Lightning ECL-Plus (Perkin Elmer, Waltham, MA) and visualized by various times (3-120 seconds) of exposure. Actin, tubulin and/or GAPDH were detected as the internal control to normalize total protein loading for each sample.

[3] = target: human serum albumin (HSA) (Homo sapiens, UniProt P02768); assay: UV spectra (310-450 nm) with HSA; format: physicochemical
Chain of human serum albumin (HSA) (P02768 25-609): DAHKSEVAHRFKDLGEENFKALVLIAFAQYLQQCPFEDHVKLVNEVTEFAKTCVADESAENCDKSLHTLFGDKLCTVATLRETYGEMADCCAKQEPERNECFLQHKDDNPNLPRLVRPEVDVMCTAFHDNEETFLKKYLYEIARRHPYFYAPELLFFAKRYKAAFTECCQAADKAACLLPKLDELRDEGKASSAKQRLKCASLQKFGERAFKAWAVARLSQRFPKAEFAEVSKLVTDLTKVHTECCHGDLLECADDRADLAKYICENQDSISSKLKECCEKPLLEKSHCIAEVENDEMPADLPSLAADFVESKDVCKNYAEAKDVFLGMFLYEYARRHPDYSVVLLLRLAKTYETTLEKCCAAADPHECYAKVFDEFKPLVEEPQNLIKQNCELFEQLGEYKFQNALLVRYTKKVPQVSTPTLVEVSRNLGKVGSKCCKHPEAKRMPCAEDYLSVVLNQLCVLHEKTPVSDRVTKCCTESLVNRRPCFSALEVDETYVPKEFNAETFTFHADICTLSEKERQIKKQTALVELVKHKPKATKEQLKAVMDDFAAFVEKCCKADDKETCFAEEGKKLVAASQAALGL

[4] = system: pancreatic cancer PDX tumor (PDX14244) tissues; assay: Ex vivo culture of pancreatic cancer PDX tumor tissue; format: cell-based, human; details: 7 days
Source text: Pancreatic cancer patient-derived xenograft (PDX) tumor (PDX14244) in vitro culture and studies: PDX14244 tumors were collected from SCID mice, and the isolated tumors were maintained in PBS solution. Then cut the fresh tumor tissues into many small pieces (e.g., 2×2×2 mm) and the left tumors were frozen for other use. The small pieces of tumor tissues were washed twice in PBS and then added onto the stiff gel prepared at the ratio of gel: PBS=1:1 in the 24-well plate (2-3 pieces per well). […] On day 3, replace the old medium content with freshly prepared same medium content. On day 7, the cultured PDX14244 tumor tissues were taken out and representative images were taken under microscopes, and the tumor tissues were transferred into a fresh 24-well plate and immediately fixed in 10% neutral buffered formalin (NBF) for 24 hours ad then replaced NBF with 70% ethanol for 1-4 days for paraffin embedding to make block cassettes for histology analysis. Tissue blocks were cut and H&E staining for tumor tissue stroma ECM stiffness (desmoplasia) observation.

22Rv1 CRPC tumors = assay: 22Rv1 CRPC tumor model

CCC1(O)C(=O)OCc2c1cc1n(c2=O)Cc2cc3cc4c(cc3nc2-1)OCO4 (stereo not shown) [FL118]
cell migration wound healing [1]: exhibited cell migration wound healing defect
bacterial strain mutation (TA100): does not induce
mean revertant colonies over negative control (TA100; +/− S9): less than 2 fold
Background Lawn Code (TA100; TA100, 0.010 μM +S9): 1
Colony Counts Average (TA100; TA100, 0.010 μM +S9): 92
Colony Counts Replicate 1-3 (TA100; TA100, 0.010 μM +S9): 101 and 96 and 79
Background Lawn Code (TA100; TA100, 0.010 μM −S9): 1
Colony Counts Average (TA100; TA100, 0.010 μM −S9): 77
Colony Counts Replicate 1-3 (TA100; TA100, 0.010 μM −S9): 72 and 79 and 80
Background Lawn Code (TA100; TA100, 0.10 μM +S9): 1
Colony Counts Average (TA100; TA100, 0.10 μM +S9): 89
Colony Counts Replicate 1-3 (TA100; TA100, 0.10 μM +S9): 96 and 74 and 98
Background Lawn Code (TA100; TA100, 0.10 μM −S9): 1
Colony Counts Average (TA100; TA100, 0.10 μM −S9): 87
Colony Counts Replicate 1-3 (TA100; TA100, 0.10 μM −S9): 89 and 77 and 94
Background Lawn Code (TA100; TA100, 1.0 μM +S9): 1
Colony Counts Average (TA100; TA100, 1.0 μM +S9): 99
Colony Counts Replicate 1-3 (TA100; TA100, 1.0 μM +S9): 105 and 106 and 87
Background Lawn Code (TA100; TA100, 1.0 μM −S9): 1
Colony Counts Average (TA100; TA100, 1.0 μM −S9): 83
Colony Counts Replicate 1-3 (TA100; TA100, 1.0 μM −S9): 94 and 75 and 81
DDX5, Agrin, YAP1, p-FAK, Integrin in PDX tumors [2]: more profound decrease
interaction with HSA (UV absorbance decrease) ([3]; 10 μM in PBS with 4% HSA): strong interaction
interaction with HSA (UV absorbance decrease) ([3]; 10 μM, high NaCl salt, 4% HSA): strong interaction
cell and stroma spreading from tissue edge [4]: effectively inhibit the pancreatic cancer cells and stroma spreading
tumor stroma intensity (H&E) [4]: significantly tumor stroma intensity loose
antitumor efficacy (22Rv1 CRPC tumors; 5 mg/kg oral, weekly×4): completely inhibited 22Rv1 tumor growth
toxicity (clinical observations, body weight) (22Rv1 CRPC tumors; therapeutic dose): exhibited no toxicity
